Where a SMILES comes first, the peptide text is derived from it. Bridges are numbered along the chain shown (N, C = ends). [ ]: non-standard residue; d: D form. The star is where a group is joined. hPhe(3-Cl-4-CF3) = N[C@@H](CCc1ccc(C(F)(F)F)c(Cl)c1)C(=O)O; NPrPhe(4-CF3) = CCCN[C@@H](Cc1ccc(C(F)(F)F)cc1)C(=O)O; NEtPhe(4-CF3) = CCN[C@@H](Cc1ccc(C(F)(F)F)cc1)C(=O)O; hPhe(3,4-Cl2) = N[C@@H](CCc1ccc(Cl)c(Cl)c1)C(=O)O; NMeGly(cPent) = CN[C@H](C(=O)O)C1CCCC1; cisHyp = O=C(O)[C@@H]1C[C@H](O)CN1; Hyp = O=C(O)[C@@H]1C[C@@H](O)CN1; NMeD = CN[C@@H](CC(=O)O)C(=O)O; NMeL = CN[C@@H](CC(C)C)C(=O)O; Ac6c = NC1(C(=O)O)CCCCC1; Morpholide = C1CN(*)CCO1; NMeA = CN[C@@H](C)C(=O)O; Ac5c = NC1(C(=O)O)CCCC1; Aze = O=C(O)[C@@H]1CCN1; Ethyl(2,2-F2) = FC(F)C*; Ac3c = NC1(C(=O)O)CC1; Aib = CC(C)(N)C(=O)O; Sar = CNCC(=O)O
Tests used:
[1] = target: GDP-bound NRAS wild-type protein (Homo sapiens, UniProt P01111); experiment: Binding to NRAS by surface plasmon resonance (SPR), KD and KD ratio to KRAS; conditions: ratio of KD for GDP-bound NRAS wild-type protein to KD for KRAS
Sequence of GDP-bound NRAS wild-type protein (P01111 whole entry): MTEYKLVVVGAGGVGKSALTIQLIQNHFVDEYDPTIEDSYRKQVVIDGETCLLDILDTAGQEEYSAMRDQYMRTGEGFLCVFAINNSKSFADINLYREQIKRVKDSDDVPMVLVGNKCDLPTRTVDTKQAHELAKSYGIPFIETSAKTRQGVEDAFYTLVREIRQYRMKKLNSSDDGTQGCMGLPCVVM
Procedure, shortened: (§1)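 Single-cycle kinetics on GDP-loaded biotin-Avi RAS captured to ~100–300 RU; 75 s ascending injections, 100 µL/min, 30°C. HBS pH 7.4 + 10 mM MgCl2/10 µM GDP/4% DMSO. 1:1 fit, KD.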

[2] = target: HRAS wild-type protein (Homo sapiens, UniProt P01112); experiment: Binding to HRAS by surface plasmon resonance (SPR), KD and KD ratio to KRAS; conditions: ratio of KD for HRAS wild-type protein to KD for KRAS
Sequence of HRAS wild-type protein (P01112 whole entry): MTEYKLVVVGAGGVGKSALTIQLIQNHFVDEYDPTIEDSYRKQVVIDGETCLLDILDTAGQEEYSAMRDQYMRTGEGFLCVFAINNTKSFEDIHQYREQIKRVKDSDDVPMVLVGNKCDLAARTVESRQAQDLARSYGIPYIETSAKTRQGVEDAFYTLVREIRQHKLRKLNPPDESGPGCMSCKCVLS
Procedure, shortened: as §1

[3] = system: human lung cancer strain NCI-H441; assay type: cell-based
Procedure, shortened: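 Proliferation was scored by […] measured after the reagent was added to cultures kept at 37°C in 5% carbon dioxide.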

| Structure (SMILES) | NRAS /KRAS [1] | HRAS /KRAS [2] | IC50 [3] [nM] |
| --- | --- | --- | --- |
| CCCN1C(=O)CN(C)C(=O)CN(C)C(=O)[C@H]([C@@H](C)CC)NC(=O)[C@H](CC(C)C)N(C)C(=O)C[C@@H](C(=O)N2CCOCC2)N(C)C(=O)[C@H](C2CCCC2)N(C)C(=O)C2(CC2)NC(=O)[C@@H]2CCCN2C(=O)[C@H](CCc2ccc(C(F)(F)F)c(Cl)c2)NC(=O)CN(C)C(=O)[C@@H]1Cc1ccc(C(F)(F)F)cc1 [PP0229] ([NMeL]I[Sar][Sar][NPrPhe(4-CF3)][Sar][hPhe(3-Cl-4-CF3)]P[Ac3c][NMeGly(cPent)][NMeD]-Morpholide; lactam N-11) | B (a compound having 3 or more and less than 10 is denoted as B) | B (a compound having 3 or more and less than 10 is denoted as B) | 24.7 |
| CCCN1C(=O)CN(C)C(=O)CN(C)C(=O)[C@H]([C@@H](C)CC)NC(=O)[C@H](CC(C)C)N(C)C(=O)C[C@@H](C(=O)N2CCOCC2)N(C)C(=O)[C@H](C2CCCC2)N(C)C(=O)C(C)(C)NC(=O)[C@@H]2CCCN2C(=O)[C@H](CCc2ccc(C(F)(F)F)c(Cl)c2)NC(=O)CN(C)C(=O)[C@@H]1Cc1ccc(C(F)(F)F)cc1 [PP0230] ([NMeL]I[Sar][Sar][NPrPhe(4-CF3)][Sar][hPhe(3-Cl-4-CF3)]P[Aib][NMeGly(cPent)][NMeD]-Morpholide; lactam N-11) | B (a compound having 3 or more and less than 10 is denoted as B) | C (A compound having a KD ratio of 0.1 or more and less than 3 is denoted as C) | 15.5 |
| CCCN1C(=O)CN(C)C(=O)CN(C)C(=O)[C@H]([C@@H](C)CC)NC(=O)[C@H](CC(C)C)N(C)C(=O)C[C@@H](C(=O)N2CCOCC2)N(C)C(=O)[C@H](C2CCCC2)N(C)C(=O)C2(CCCCC2)NC(=O)[C@@H]2CCCN2C(=O)[C@H](CCc2ccc(C(F)(F)F)c(Cl)c2)NC(=O)CN(C)C(=O)[C@@H]1Cc1ccc(C(F)(F)F)cc1 [PP0231] ([NMeL]I[Sar][Sar][NPrPhe(4-CF3)][Sar][hPhe(3-Cl-4-CF3)]P[Ac6c][NMeGly(cPent)][NMeD]-Morpholide; lactam N-11) | B (a compound having 3 or more and less than 10 is denoted as B) | C (A compound having a KD ratio of 0.1 or more and less than 3 is denoted as C) | 13.1 |
| CCCN1C(=O)CN(C)C(=O)CN(C)C(=O)[C@H]([C@@H](C)CC)NC(=O)[C@H](CC(C)C)N(C)C(=O)C[C@@H](C(=O)N2CCOCC2)N(C)C(=O)[C@H](C2CCCC2)N(C)C(=O)C2(CCCC2)NC(=O)[C@@H]2CCCN2C(=O)[C@H](CCc2ccc(Cl)c(Cl)c2)NC(=O)CN(C)C(=O)[C@@H]1Cc1ccc(C(F)(F)F)cc1 [PP0232] ([NMeL]I[Sar][Sar][NPrPhe(4-CF3)][Sar][hPhe(3,4-Cl2)]P[Ac5c][NMeGly(cPent)][NMeD]-Morpholide; lactam N-11) | B (a compound having 3 or more and less than 10 is denoted as B) | B (a compound having 3 or more and less than 10 is denoted as B) | 4.7 |
| CCCN1C(=O)CN(C)C(=O)CN(C)C(=O)[C@H]([C@@H](C)CC)NC(=O)[C@H](CC(C)C)N(C)C(=O)C[C@@H](C(=O)N2CCOCC2)N(C)C(=O)[C@H](C2CCCC2)N(C)C(=O)C2(CCCC2)NC(=O)[C@@H]2C[C@@H](OCC)CN2C(=O)[C@H](CCc2ccc(C(F)(F)F)c(Cl)c2)NC(=O)CN(C)C(=O)[C@@H]1Cc1ccc(C(F)(F)F)cc1 [PP0233] ([NMeL]I[Sar][Sar][NPrPhe(4-CF3)][Sar][hPhe(3-Cl-4-CF3)][Hyp](Et)[Ac5c][NMeGly(cPent)][NMeD]-Morpholide; lactam N-11) | B (a compound having 3 or more and less than 10 is denoted as B) | C (A compound having a KD ratio of 0.1 or more and less than 3 is denoted as C) | 1.6 |
| CC[C@H](C)[C@@H]1NC(=O)[C@H](CC(C)C)N(C)C(=O)C[C@@H](C(=O)N2CCOCC2)N(C)C(=O)[C@H](C2CCCC2)N(C)C(=O)C2(CCCCC2)NC(=O)[C@@H]2CCCN2C(=O)[C@H](CCc2ccc(C(F)(F)F)c(Cl)c2)NC(=O)CN(C)C(=O)[C@H](Cc2ccc(C(F)(F)F)cc2)N(CC)C(=O)CN(C)C(=O)CN(C)C1=O [PP0236] ([NMeL]I[Sar][Sar][NEtPhe(4-CF3)][Sar][hPhe(3-Cl-4-CF3)]P[Ac6c][NMeGly(cPent)][NMeD]-Morpholide; lactam N-11) | B (a compound having 3 or more and less than 10 is denoted as B) | C (A compound having a KD ratio of 0.1 or more and less than 3 is denoted as C) | 20.3 |
| CC[C@H](C)[C@@H]1NC(=O)[C@H](CC(C)C)N(C)C(=O)C[C@@H](C(=O)N2CCOCC2)N(C)C(=O)[C@H](C2CCCC2)N(C)C(=O)C2(CCCC2)NC(=O)[C@@H]2CCCN2C(=O)[C@H](CCc2ccc(Cl)c(Cl)c2)NC(=O)CN(C)C(=O)[C@H](Cc2ccc(C(F)(F)F)cc2)N(CC)C(=O)CN(C)C(=O)CN(C)C1=O [PP0237] ([NMeL]I[Sar][Sar][NEtPhe(4-CF3)][Sar][hPhe(3,4-Cl2)]P[Ac5c][NMeGly(cPent)][NMeD]-Morpholide; lactam N-11) | B (a compound having 3 or more and less than 10 is denoted as B) | C (A compound having a KD ratio of 0.1 or more and less than 3 is denoted as C) | 4 |
| CCCN1C(=O)[C@@H]2CCN2C(=O)[C@H](C)N(C)C(=O)[C@H]([C@@H](C)CC)NC(=O)[C@H](CC(C)C)N(C)C(=O)C[C@@H](C(=O)N2CCOCC2)N(C)C(=O)[C@H](C2CCCC2)N(C)C(=O)C2(CCCC2)NC(=O)[C@@H]2C[C@@H](O)CN2C(=O)[C@H](CCc2ccc(C(F)(F)F)c(Cl)c2)NC(=O)CN(C)C(=O)[C@@H]1Cc1ccc(C(F)(F)F)cc1 [PP0239] ([NMeL]I[NMeA][Aze][NPrPhe(4-CF3)][Sar][hPhe(3-Cl-4-CF3)][Hyp][Ac5c][NMeGly(cPent)][NMeD]-Morpholide; lactam N-11) | C (A compound having a KD ratio of 0.1 or more and less than 3 is denoted as C) | B (a compound having 3 or more and less than 10 is denoted as B) | 6.2 |
| CCCN1C(=O)CN(C)C(=O)CN(C)C(=O)[C@H]([C@@H](C)CC)NC(=O)[C@H](CC(C)C)N(C)C(=O)C[C@@H](C(=O)N2CCOCC2)N(C)C(=O)[C@H](C2CCCC2)N(C)C(=O)C2(CCCC2)NC(=O)[C@@H]2C[C@@H](O)CN2C(=O)[C@H](CCc2ccc(C(F)(F)F)c(Cl)c2)NC(=O)CN(C)C(=O)[C@@H]1Cc1ccc(C(F)(F)F)cc1 [PP0241] ([NMeL]I[Sar][Sar][NPrPhe(4-CF3)][Sar][hPhe(3-Cl-4-CF3)][Hyp][Ac5c][NMeGly(cPent)][NMeD]-Morpholide; lactam N-11) | B (a compound having 3 or more and less than 10 is denoted as B) | C (A compound having a KD ratio of 0.1 or more and less than 3 is denoted as C) | 4.9 |
| CCCN1C(=O)[C@@H]2CCN2C(=O)[C@H](C)N(C)C(=O)[C@H]([C@@H](C)CC)NC(=O)[C@H](CC(C)C)N(C)C(=O)C[C@@H](C(=O)N2CCOCC2)N(C)C(=O)[C@H](C2CCCC2)N(C)C(=O)C2(CCCC2)NC(=O)[C@@H]2C[C@H](OCC)CN2C(=O)[C@H](CCc2ccc(C(F)(F)F)c(Cl)c2)NC(=O)CN(C)C(=O)[C@@H]1Cc1ccc(C(F)(F)F)cc1 [PP0242] ([NMeL]I[NMeA][Aze][NPrPhe(4-CF3)][Sar][hPhe(3-Cl-4-CF3)][cisHyp](Et)[Ac5c][NMeGly(cPent)][NMeD]-Morpholide; lactam N-11) | C (A compound having a KD ratio of 0.1 or more and less than 3 is denoted as C) | C (A compound having a KD ratio of 0.1 or more and less than 3 is denoted as C) | 5 |
| CCCN1C(=O)CN(C)C(=O)CN(C)C(=O)[C@H]([C@@H](C)CC)NC(=O)[C@H](CC(C)C)N(C)C(=O)C[C@@H](C(=O)N2CCOCC2)N(C)C(=O)[C@H](C2CCCC2)N(C)C(=O)C2(CCCC2)NC(=O)[C@@H]2C[C@H](OCC)CN2C(=O)[C@H](CCc2ccc(C(F)(F)F)c(Cl)c2)NC(=O)CN(C)C(=O)[C@@H]1Cc1ccc(C(F)(F)F)cc1 [PP0243] ([NMeL]I[Sar][Sar][NPrPhe(4-CF3)][Sar][hPhe(3-Cl-4-CF3)][cisHyp](Et)[Ac5c][NMeGly(cPent)][NMeD]-Morpholide; lactam N-11) | B (a compound having 3 or more and less than 10 is denoted as B) | C (A compound having a KD ratio of 0.1 or more and less than 3 is denoted as C) | 23.2 |
| CCCN1C(=O)CN(C)C(=O)CN(C)C(=O)[C@H]([C@@H](C)CC)NC(=O)[C@H](CC(C)C)N(C)C(=O)C[C@@H](C(=O)N2CCOCC2)N(C)C(=O)[C@H](C2CCCC2)N(C)C(=O)C2(CCCC2)NC(=O)[C@@H]2C[C@@H](OCC(F)F)CN2C(=O)[C@H](CCc2ccc(C(F)(F)F)c(Cl)c2)NC(=O)CN(C)C(=O)[C@@H]1Cc1ccc(C(F)(F)F)cc1 [PP0246] ([NMeL]I[Sar][Sar][NPrPhe(4-CF3)][Sar][hPhe(3-Cl-4-CF3)][Hyp](Ethyl(2,2-F2))[Ac5c][NMeGly(cPent)][NMeD]-Morpholide; lactam N-11) | B (a compound having 3 or more and less than 10 is denoted as B) | C (A compound having a KD ratio of 0.1 or more and less than 3 is denoted as C) | 1.8 |
